In patent US10414811B2, “Protease-resistant lipidated GLP-1 analogs” (MEDIMMUNE LIMITED, priority 2015, dated 2019):
Where two headings read alike, the source gives them in different places. Numbered stars: 1 amine (or outer) side, 2 acyl side, 3 side chain; on linkers, the order of the positions; unused ones are H or OH. Square brackets hold non-standard residues; d marks the D form. Side chains are listed from the residue outwards. Peptide text beside a SMILES is read from it. * marks the point of attachment. γGlu = O=C(O)[C@H](CCC(=O)[*:2])N[*:1]; Stearoyl = CCCCCCCCCCCCCCCCCC(=O)*; Palmitoyl = CCCCCCCCCCCCCCCC(=O)*; αMeF = C[C@](N)(Cc1ccccc1)C(=O)O; Myristoyl = CCCCCCCCCCCCCC(=O)*; αMeK = C[C@](N)(CCCCN)C(=O)O; Lauroyl = CCCCCCCCCCCC(=O)*; αMeS = C[C@](N)(CO)C(=O)O; Nle = CCCC[C@H](N)C(=O)O; AEEA = NCCOCCOCC(=O)O; Aib = CC(C)(N)C(=O)O

Experiments:
GLP-1R (INS1e assay) = target: T1, GLP-1R (INS1e assay) (Rattus norvegicus, UniProt P32301); assay: INS1e assay, cAMP activity at GLP-1R; assay type: cell-based; conditions: bis-lipidated peptides
T1 construct: endogenous in cells; host or cells: INS-1E cells
T1 sequence (P32301 22-463): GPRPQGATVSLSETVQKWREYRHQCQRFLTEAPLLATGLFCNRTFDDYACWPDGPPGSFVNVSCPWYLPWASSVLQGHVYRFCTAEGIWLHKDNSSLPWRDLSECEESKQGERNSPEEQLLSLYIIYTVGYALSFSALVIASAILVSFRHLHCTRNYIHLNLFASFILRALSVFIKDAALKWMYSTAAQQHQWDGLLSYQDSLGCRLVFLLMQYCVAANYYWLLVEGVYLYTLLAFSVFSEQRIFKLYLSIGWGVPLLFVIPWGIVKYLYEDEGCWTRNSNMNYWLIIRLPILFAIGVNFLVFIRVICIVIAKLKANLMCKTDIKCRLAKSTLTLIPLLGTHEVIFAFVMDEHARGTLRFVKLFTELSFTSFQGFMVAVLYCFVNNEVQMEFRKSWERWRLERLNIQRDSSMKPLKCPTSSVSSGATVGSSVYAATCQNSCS
Experimental: cAMP levels are measured using a commercially available cAMP dynamic 2 HTRF kit (Cisbio, Cat #62AM4PEJ), following the two step protocol as per manufacturer's recommendations. In brief; anti-cAMP cryptate (donor fluorophore) and cAMP-d2 (acceptor fluorophore) are made up separately by diluting each 1/20 in conjugate & lysis buffer provided in the kit. 5 μL anti-cAMP cryptate is added to wells of the assay plate, and 5 μL cAMP-d2 is added to wells except non-specific binding (NSB) wells, to which conjugate and lysis buffer are added. […] EC50 values of the synthetic peptides determined in cAMP assays are then determined.

[1] = target: T2, human GLP-1 receptor (GLP-1R) (Homo sapiens, UniProt P43220); assay: cAMP assay, human GLP-1R cells; assay type: cell-based; conditions: bis-lipidated peptides
T2 construct: expressed in transfected cells
How it was run: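 Peptide-stimulated cAMP measured by two-step HTRF after a 30 min room-temperature incubation with receptor-expressing cells (hGLP-1R, hGIPR at 1×10^5 cells/ml; hGCGR at 2×10^5 cells/ml). Duplicate dilutions; EC50 from 4-parameter logistic fit of % Delta F.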

[2] = mean of n1 and n2, read-out: INS1e assay EC50 Mean pM GLP-1R
[3] = replicate n1, read-out: INS1e assay EC50 GLP-1R n1
[4] = replicate n2, read-out: INS1e assay EC50 GLP-1R n2
[5] = mean of n1 and n2, read-out: Primary assay EC50 Mean pM GLP-1R
[6] = replicate n1, read-out: Primary assay EC50 GLP-1R n1
[7] = replicate n2, read-out: Primary assay EC50 GLP-1R n2

T2 sequence (P43220 24-463): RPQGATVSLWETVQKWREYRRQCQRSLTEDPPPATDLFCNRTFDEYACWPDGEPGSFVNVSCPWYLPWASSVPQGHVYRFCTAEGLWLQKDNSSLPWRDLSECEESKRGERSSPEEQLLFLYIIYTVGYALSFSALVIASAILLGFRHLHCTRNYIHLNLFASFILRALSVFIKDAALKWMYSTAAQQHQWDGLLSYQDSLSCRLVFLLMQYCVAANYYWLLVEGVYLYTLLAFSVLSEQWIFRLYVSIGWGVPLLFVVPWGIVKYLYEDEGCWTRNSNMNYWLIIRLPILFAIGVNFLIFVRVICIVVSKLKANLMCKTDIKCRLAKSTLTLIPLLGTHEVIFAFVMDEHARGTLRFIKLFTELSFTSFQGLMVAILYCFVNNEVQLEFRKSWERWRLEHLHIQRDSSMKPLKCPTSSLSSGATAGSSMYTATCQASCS

| EC50 (GLP-1R (INS1e assay); [2]) | EC50 (GLP-1R (INS1e assay); [3]) | EC50 (GLP-1R (INS1e assay); [4]) | EC50 [1, 5] | EC50 [1, 6] | EC50 [1, 7] | SMILES |
| --- | --- | --- | --- | --- | --- | --- |
| 552 pM | 700 pM | 403 pM | 5.4 pM | 6.73 pM | 4.14 pM | CCCCCCCCCCCC(=O)N[C@@H](CCC(=O)NCCOCCOCC(=O)NCCOCCOCC(=O)NCCCC[C@H](NC(=O)[C@H](CO)NC(=O)[C@](C)(CO)NC(=O)[C@@H](NC(=O)[C@H](CC(=O)O)NC(=O)[C@H](CO)NC(=O)[C@@H](NC(=O)[C@](C)(Cc1ccccc1)NC(=O)[C@H](CO)NC(=O)CNC(=O)[C@H](CCC(=O)O)NC(=O)C(C)(C)NC(=O)[C@@H](N)Cc1c[nH]cn1)[C@@H](C)O)C(C)C)C(=O)N[C@@H](CC(C)C)C(=O)N[C@@H](CCC(=O)O)C(=O)NCC(=O)N[C@@H](CCC(=O)O)C(=O)N[C@@H](C)C(=O)N[C@@H](C)C(=O)N[C@@](C)(CCCCN)C(=O)N[C@@H](CCC(=O)O)C(=O)N[C@@H](Cc1ccccc1)C(=O)N[C@H](C(=O)N[C@@H](CCCCNC(=O)COCCOCCNC(=O)COCCOCCNC(=O)CC[C@H](NC(=O)CCCCCCCCCCC)C(=O)O)C(=O)N[C@@H](Cc1c[nH]c2ccccc12)C(=O)N[C@H](C(=O)N[C@H](C(=O)N[C@@H](CCC(=O)O)C(=O)NCC(=O)NCC(N)=O)C(C)C)C(C)C)[C@@H](C)CC)C(=O)O [compound 262] (H-H[Aib]EGS[αMeF]TSDV[αMeS]SK([AEEA-AEEA-γGlu-Lauroyl])LEGEAA[αMeK]EFIK([AEEA-AEEA-γGlu-Lauroyl])WVVEGG-NH2; N-terminus assumed) |
| 104 pM | 113 pM | 95.2 pM |  |  |  | CCCCCCCCCCCC(=O)N[C@@H](CCC(=O)NCCOCCOCC(=O)NCCOCCOCC(=O)NCCCC[C@H](NC(=O)[C@H](C)NC(=O)[C@@H](NC(=O)[C@H](CCCC)NC(=O)[C@H](CCC(=O)O)NC(=O)[C@](C)(CCCCN)NC(=O)[C@H](C)NC(=O)[C@H](C)NC(=O)[C@H](CCC(=O)O)NC(=O)CNC(=O)[C@H](CCC(=O)O)NC(=O)[C@H](CC(C)C)NC(=O)[C@H](CCCCNC(=O)COCCOCCNC(=O)COCCOCCNC(=O)CC[C@H](NC(=O)CCCCCCCCCCC)C(=O)O)NC(=O)[C@H](CO)NC(=O)[C@](C)(CO)NC(=O)[C@@H](NC(=O)[C@H](CC(=O)O)NC(=O)[C@H](CO)NC(=O)[C@@H](NC(=O)[C@](C)(Cc1ccccc1)NC(=O)[C@H](CO)NC(=O)CNC(=O)[C@H](CCC(=O)O)NC(=O)C(C)(C)NC(=O)[C@@H](N)Cc1c[nH]cn1)[C@@H](C)O)C(C)C)[C@@H](C)CC)C(=O)N[C@H](C(=O)N[C@H](C(=O)N[C@@H](CCC(=O)O)C(=O)NCC(=O)NCC(N)=O)C(C)C)C(C)C)C(=O)O [compound 407] (H-H[Aib]EGS[αMeF]TSDV[αMeS]SK([AEEA-AEEA-γGlu-Lauroyl])LEGEAA[αMeK]E[Nle]IAK([AEEA-AEEA-γGlu-Lauroyl])VVEGG-NH2) |
| 216 pM | 183 pM | 249 pM | 36.1 pM | 39.5 pM | 32.6 pM | CCCCCCCCCCCCCCCC(=O)N[C@@H](CCC(=O)NCCOCCOCC(=O)NCCOCCOCC(=O)NCCCC[C@H](NC(=O)[C@H](C)NC(=O)[C@@H](NC(=O)[C@](C)(Cc1ccccc1)NC(=O)[C@H](CCC(=O)O)NC(=O)[C@](C)(CCCCN)NC(=O)[C@H](C)NC(=O)[C@H](C)NC(=O)[C@H](CCC(=O)O)NC(=O)CNC(=O)[C@H](CCC(=O)O)NC(=O)[C@H](CC(C)C)NC(=O)[C@H](CCCCNC(=O)COCCOCCNC(=O)COCCOCCNC(=O)CC[C@H](NC(=O)CCCCCCCCCCCCCCC)C(=O)O)NC(=O)[C@H](CO)NC(=O)[C@](C)(CO)NC(=O)[C@@H](NC(=O)[C@H](CC(=O)O)NC(=O)[C@H](CO)NC(=O)[C@@H](NC(=O)[C@](C)(Cc1ccccc1)NC(=O)[C@H](CO)NC(=O)CNC(=O)[C@H](CCC(=O)O)NC(=O)C(C)(C)NC(=O)[C@@H](N)Cc1c[nH]cn1)[C@@H](C)O)C(C)C)[C@@H](C)CC)C(=O)N[C@H](C(=O)N[C@H](C(=O)N[C@@H](CCC(=O)O)C(=O)NCC(=O)NCC(N)=O)C(C)C)C(C)C)C(=O)O [compound 409] (H-H[Aib]EGS[αMeF]TSDV[αMeS]SK([AEEA-AEEA-γGlu-Palmitoyl])LEGEAA[αMeK]E[αMeF]IAK([AEEA-AEEA-γGlu-Palmitoyl])VVEGG-NH2) |
|  | 110 pM |  |  |  | 3.66 pM | CCCCCCCCCCCC(=O)N[C@@H](CCC(=O)NCCOCCOCC(=O)NCCOCCOCC(=O)NCCCC[C@H](NC(=O)[C@H](C)NC(=O)[C@@H](NC(=O)[C@](C)(Cc1ccccc1)NC(=O)[C@H](CCC(=O)O)NC(=O)[C@](C)(CCCCN)NC(=O)[C@H](C)NC(=O)[C@H](C)NC(=O)[C@H](CCC(=O)O)NC(=O)CNC(=O)[C@H](CCC(=O)O)NC(=O)[C@H](CC(C)C)NC(=O)[C@H](CCCCNC(=O)COCCOCCNC(=O)COCCOCCNC(=O)CC[C@H](NC(=O)CCCCCCCCCCC)C(=O)O)NC(=O)[C@H](CO)NC(=O)[C@](C)(CO)NC(=O)[C@@H](NC(=O)[C@H](CC(=O)O)NC(=O)[C@H](CO)NC(=O)[C@@H](NC(=O)[C@](C)(Cc1ccccc1)NC(=O)[C@H](CO)NC(=O)CNC(=O)[C@H](CCC(=O)O)NC(=O)C(C)(C)NC(=O)[C@@H](N)Cc1c[nH]cn1)[C@@H](C)O)C(C)C)[C@@H](C)CC)C(=O)N[C@H](C(=O)N[C@H](C(=O)N[C@@H](CCC(=O)O)C(=O)NCC(=O)NCC(N)=O)C(C)C)C(C)C)C(=O)O [compound 405] (H-H[Aib]EGS[αMeF]TSDV[αMeS]SK([AEEA-AEEA-γGlu-Lauroyl])LEGEAA[αMeK]E[αMeF]IAK([AEEA-AEEA-γGlu-Lauroyl])VVEGG-NH2) |
| 412 pM | 376 pM | 448 pM | 8.9 pM | 9.96 pM | 7.89 pM | CCCCCCCCCCCCCC(=O)N[C@@H](CCC(=O)NCCOCCOCC(=O)NCCOCCOCC(=O)NCCCC[C@H](NC(=O)[C@H](C)NC(=O)[C@@H](NC(=O)[C@](C)(Cc1ccccc1)NC(=O)[C@H](CCC(=O)O)NC(=O)[C@](C)(CCCCN)NC(=O)[C@H](C)NC(=O)[C@H](C)NC(=O)[C@H](CCC(=O)O)NC(=O)CNC(=O)[C@H](CCC(=O)O)NC(=O)[C@H](CC(C)C)NC(=O)[C@H](CCCCNC(=O)COCCOCCNC(=O)COCCOCCNC(=O)CC[C@H](NC(=O)CCCCCCCCCCCCC)C(=O)O)NC(=O)[C@H](CO)NC(=O)[C@](C)(CO)NC(=O)[C@@H](NC(=O)[C@H](CC(=O)O)NC(=O)[C@H](CO)NC(=O)[C@@H](NC(=O)[C@](C)(Cc1ccccc1)NC(=O)[C@H](CO)NC(=O)CNC(=O)[C@H](CCC(=O)O)NC(=O)C(C)(C)NC(=O)[C@@H](N)Cc1c[nH]cn1)[C@@H](C)O)C(C)C)[C@@H](C)CC)C(=O)N[C@H](C(=O)N[C@H](C(=O)N[C@@H](CCC(=O)O)C(=O)NCC(=O)NCC(N)=O)C(C)C)C(C)C)C(=O)O [compound 408] (H-H[Aib]EGS[αMeF]TSDV[αMeS]SK([AEEA-AEEA-γGlu-Myristoyl])LEGEAA[αMeK]E[αMeF]IAK([AEEA-AEEA-γGlu-Myristoyl])VVEGG-NH2) |
| 780 pM | 698 pM | 862 pM | 187 pM | 248 pM | 126 pM | CCCCCCCCCCCCCCCCCC(=O)N[C@@H](CCC(=O)NCCOCCOCC(=O)NCCOCCOCC(=O)NCCCC[C@H](NC(=O)[C@H](C)NC(=O)[C@@H](NC(=O)[C@](C)(Cc1ccccc1)NC(=O)[C@H](CCC(=O)O)NC(=O)[C@](C)(CCCCN)NC(=O)[C@H](C)NC(=O)[C@H](C)NC(=O)[C@H](CCC(=O)O)NC(=O)CNC(=O)[C@H](CCC(=O)O)NC(=O)[C@H](CC(C)C)NC(=O)[C@H](CCCCNC(=O)COCCOCCNC(=O)COCCOCCNC(=O)CC[C@H](NC(=O)CCCCCCCCCCCCCCCCC)C(=O)O)NC(=O)[C@H](CO)NC(=O)[C@](C)(CO)NC(=O)[C@@H](NC(=O)[C@H](CC(=O)O)NC(=O)[C@H](CO)NC(=O)[C@@H](NC(=O)[C@](C)(Cc1ccccc1)NC(=O)[C@H](CO)NC(=O)CNC(=O)[C@H](CCC(=O)O)NC(=O)C(C)(C)NC(=O)[C@@H](N)Cc1c[nH]cn1)[C@@H](C)O)C(C)C)[C@@H](C)CC)C(=O)N[C@H](C(=O)N[C@H](C(=O)N[C@@H](CCC(=O)O)C(=O)NCC(=O)NCC(N)=O)C(C)C)C(C)C)C(=O)O [compound 410] (H-H[Aib]EGS[αMeF]TSDV[αMeS]SK([AEEA-AEEA-γGlu-Stearoyl])LEGEAA[αMeK]E[αMeF]IAK([AEEA-AEEA-γGlu-Stearoyl])VVEGG-NH2) |
